Laboratory results published in patent US20040265341A1, “Prevention of uveitis” (Kings College London, priority 2003, published 2004).
Read-outs that look alike come from different tables or passages of the source.

Legend:
uveitis [1] = settings: cited from earlier work
uveitis [2] = assay: Prevention of experimental uveitis by oral administration in the rat uveitis model; type: in vivo; settings: oral administration to experimental animals; conjugate vs peptide alone p<0.0001
PBMC [3] = type: cell-based, human
PBMC [4] = type: cell-based, human; settings: for concentration of IFN-γ: relapsed group
[5] = before tolerising regime, 3 patients with relapsing uveitis

In the case of QPHDLGKVGEVIVTKD [p336-351], the induction of uveitis (uveitis [1]; Lewis rats, subcutaneously with an adjuvant, Uchio et al 1998) is given as “uveitis can be induced”, the “induction of uveitis or tolerance” value (uveitis [1]; oral or nasal administration, Hu et al 1998) is given as “induced uveitis instead of tolerance” and the “uveitogenicity when administered to rats” value (uveitis [1]; rats, Stanford et al 1994) is given as “most effective”. For the same sequence, the development of uveitis (uveitis [2]) was 65.8%, the “development of uveitis (animals with uveitis / total)” value (uveitis [2]) was 48/73 and the “stimulation index (SI), individual patients” value (PBMC [3]; [5]) was greater than 2. For the same sequence, the “stimulation index (SI), mean±sem” value (PBMC [3]; [5]) was 4.1±0.8, the “stimulation index (SI), mean±sem” value (PBMC [3]; before tolerising regime, 5 patients in whom uveitis was prevented) was 1.25±0.1 and the “stimulation index (SI), mean” value (PBMC [3]; prevented group, 3 months after tolerising regime started, immunosuppressive drugs tailed off) was 2.3±0.6. For the same sequence, the “stimulation index (SI), mean” value (PBMC [3]; relapsing group, 1-2 months after tolerising regime initiated, immunosuppressive doses decreased) was 23.2 (±14.8), the “production of IFN-γ” value (PBMC [4]; patients in whom uveitis was prevented, before and 3 months after immunosuppressive drugs withdrawn) was “negligible” and the TNF-α concentrations (PBMC [4]; protected patients) was “negligible”. For the same sequence, the “concentration of IFN-γ” value (PBMC [4]; 1-2 months after tolerisation initiated, unstimulated 1665±1111 pg/ml) was 4723 (±2639) pg/ml, the “concentration of IFN-γ” value (PBMC [4]; before tolerisation, unstimulated 504±411 pg/ml) was 758 ± 636 pg/mL and the TNF-α concentrations (PBMC [4]; relapsing patients, mostly 1-2 months after tolerisation) was “increased levels”.
